Values belong to the molecule of their own block, whether it stands above or below them. Activity calls are given as the source filed them. The calls are words filed in the database; no cut-off is given here.
Key:
[1] = molecular target: T1, E3 ubiquitin-protein ligase Mdm2 (Homo sapiens, UniProt Q00987); assay: Inhibition of Mdm2 -p53 protein interaction by ELISA
Target sequence in this assay (Q00987 whole entry): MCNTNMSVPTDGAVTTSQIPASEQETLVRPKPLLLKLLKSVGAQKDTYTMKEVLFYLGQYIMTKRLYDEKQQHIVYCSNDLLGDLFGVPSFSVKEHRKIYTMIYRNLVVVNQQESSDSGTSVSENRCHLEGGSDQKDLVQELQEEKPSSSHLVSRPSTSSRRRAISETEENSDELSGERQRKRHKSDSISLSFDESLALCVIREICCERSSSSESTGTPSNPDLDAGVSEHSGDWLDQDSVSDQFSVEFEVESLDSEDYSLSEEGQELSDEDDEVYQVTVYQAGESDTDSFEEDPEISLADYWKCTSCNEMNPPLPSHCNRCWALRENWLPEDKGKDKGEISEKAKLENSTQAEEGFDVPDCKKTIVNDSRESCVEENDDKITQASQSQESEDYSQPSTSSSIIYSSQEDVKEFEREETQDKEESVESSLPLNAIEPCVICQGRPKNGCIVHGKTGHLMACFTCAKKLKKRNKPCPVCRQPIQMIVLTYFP

[2] = molecular target: T1, E3 ubiquitin-protein ligase Mdm2; assay: Inhibition of Mdm2 -p53 protein interaction in human […] cells assessed as induction of p21 protein at 1 to 20 uM after 6 hrs by Western blot analysis; format: cell-based
Target sequence in this assay (Q00987 whole entry, looked up): as the sequence (Q00987 whole entry) above

[3] = molecular target: T1, E3 ubiquitin-protein ligase Mdm2; assay: Inhibition of Mdm2 -p53 protein interaction in human […] cells assessed as induction of p53 protein at 1 to 20 uM after 6 hrs by Western blot analysis; format: cell-based
Target sequence in this assay (Q00987 whole entry, looked up): as the sequence (Q00987 whole entry) above

[4] = molecular target: T1, E3 ubiquitin-protein ligase Mdm2; assay: Inhibition of Mdm2 -p53 protein interaction in human […] cells assessed as induction of MDM2 protein at 1 to 20 uM after 6 hrs by Western blot analysis; format: cell-based
Target sequence in this assay (Q00987 whole entry, looked up): as the sequence (Q00987 whole entry) above

[5] = molecular target: T1, E3 ubiquitin-protein ligase Mdm2; assay: Inhibition of Mdm2 -p53 protein interaction in human […] cells assessed as induction of p21 protein at 10 uM after 6 hrs by Western blot analysis; format: cell-based
Target sequence in this assay (Q00987 whole entry, looked up): as the sequence (Q00987 whole entry) above

[6] = molecular target: T1, E3 ubiquitin-protein ligase Mdm2; assay: Inhibition of Mdm2 -p53 protein interaction in human […] cells assessed as induction of p53 protein at 10 uM after 6 hrs by Western blot analysis; format: cell-based
Target sequence in this assay (Q00987 whole entry, looked up): as the sequence (Q00987 whole entry) above

SAOS-2 = assay: Cytotoxicity against human Saos2 cells after 72 hrs by sulforhodamine B assay; format: functional; conditions: SAOS-2, 72 h
[7] = Cytotoxicity against human NGP cells after 72 hrs by sulforhodamine B assay; format: functional
[8] = Cytotoxicity against human LS cells after 72 hrs by sulforhodamine B assay; format: functional
HCT-116 [9] = assay: Cytotoxicity against human p53 expressing HCT116 cells after 72 hrs by sulforhodamine B assay; format: functional; conditions: HCT-116, 72 h
SJSA-1 = assay: Cytotoxicity against human SJSA1 cells after 72 hrs by sulforhodamine B assay; format: functional; conditions: SJSA-1, 72 h
HCT-116 [10] = assay: Cytotoxicity against p53 deficient human HCT116 cells after 72 hrs by sulforhodamine B assay; format: functional; conditions: HCT-116, 72 h

SMILES: CCCN1C(=O)c2ccccc2C1(O)c1ccc(Cl)cc1 (stereo unspecified)
IC50 [1]: 69 µM

SMILES: O=C1c2ccccc2C(O)(c2ccc(Cl)cc2)N1CCc1ccccc1 (stereo unspecified)
IC50 [1]: 7.2 µM

SMILES: Nc1ccc(CCN2C(=O)c3ccccc3C2(O)c2ccc(Cl)cc2)cc1 (stereo unspecified)
IC50 [1]: 6.2 µM

SMILES: O=C1c2ccccc2C(O)(c2ccc(Cl)cc2)N1Cc1cccc2ccccc12 (stereo unspecified)
IC50 [1]: 47 µM

SMILES: O=C(c1ccccc1)c1ccc(CN2C(=O)c3ccccc3C2(O)c2ccc(Cl)cc2)cc1 (stereo unspecified)
IC50 [1]: > 20 µM

SMILES: N#Cc1ccc(CN2C(=O)c3ccccc3C2(OCCCCO)c2ccc(Cl)cc2)cc1 (racemic)
IC50 [1]: 3.5 µM

SMILES: O=C1c2ccccc2C(OCC2(CO)CC2)(c2ccc(Cl)cc2)N1Cc1ccncc1 (racemic)
IC50 [1]: 252 µM

SMILES: COc1ccc(C2=N[C@@H](c3ccc(Cl)cc3)[C@@H](c3ccc(Cl)cc3)N2C(=O)N2CCNC(=O)C2)c(OC(C)C)c1 [NUTLIN-3]
GI50 (SAOS-2): 18 µM
GI50 [7]: 2.1 µM
GI50 [8]: 2.3 µM
GI50 (HCT-116 [9]): 13 µM
GI50 (SJSA-1): 2.6 µM
GI50 (HCT-116 [10]): 34 µM

Other lines, results leading:

IC50 [1]: 15 µM
SMILES: Cc1ccc(CN2C(=O)c3ccccc3C2(O)c2ccc(Cl)cc2)cc1 (stereo unspecified)

IC50 [1]: 6 µM
SMILES: N#Cc1ccc(CN2C(=O)c3ccccc3C2(O)c2ccc(Cl)cc2)cc1 (stereo unspecified)

IC50 [1]: 3.1 µM
SMILES: O=C1c2ccccc2C(O)(c2ccc(Br)cc2)N1Cc1ccc([N+](=O)[O-])cc1 (stereo unspecified)

IC50 [1]: 6.2 µM
SMILES: O=C1c2ccccc2C(O)(c2ccc(Cl)cc2)N1CCc1ccc([N+](=O)[O-])cc1 (stereo unspecified)

IC50 [1]: 0.4 µM
SMILES: O=C1c2ccccc2C(O[C@H]2CC[C@@H](O)C2)(c2ccc(Cl)cc2)N1Cc1ccc([N+](=O)[O-])cc1 (mixture of isomers)

IC50 [1]: 4.7 µM
SMILES: O=C1c2ccccc2C(O[C@H]2C=C[C@@H](O)C2)(c2ccc(Cl)cc2)N1Cc1ccccc1 (mixture of isomers)

IC50 [1]: 0.38 µM
inhibition [2]: Dose-dependent effect
inhibition [3]: Dose-dependent effect
inhibition [4]: Dose-dependent effect
SMILES: O=C1c2ccccc2C(O[C@H]2CCC[C@H](O)CCC2)(c2ccc(Cl)cc2)N1Cc1ccc([N+](=O)[O-])cc1 (mixture of isomers)

inhibition [2]: Dose-dependent effect
inhibition [3]: Dose-dependent effect
inhibition [4]: Dose-dependent effect
SMILES: CC(C)(CO)COC1(c2ccc(Cl)cc2)c2ccccc2C(=O)N1Cc1ccc([N+](=O)[O-])cc1 (racemic)

inhibition [2]: Dose-dependent effect
inhibition [5]: Active
inhibition [3]: Dose-dependent effect
inhibition [4]: Dose-dependent effect
inhibition [6]: Active
SMILES: O=C1c2ccccc2C(OC[C@H]2CC[C@H](CO)CC2)(c2ccc(Cl)cc2)N1Cc1ccc([N+](=O)[O-])cc1 (mixture of isomers)
